# In US20160271188A1, “PROBIOTIC AND PREBIOTIC COMPOSITIONS, AND METHODS OF USE THEREOF FOR TREATMENT OF GASTROINTESTINAL DISORDERS” (Epiva Biosciences, Inc., priority 2014, published 2016):
# “Also recorded” adds a separate entry of the source.
# Key:
# [1] = tested on: microbiome of the gut; details: mouse, in vivo
# Excerpt: (§1) The trillions of organisms forming the microbiome function as an organ system interconnected throughout the body. The possibility that modification of the microbiome in a given physical location may influence the microbiome at other sites in the body (distal augmentation) was investigated. Seven week old C57Bl/6 female mice were acclimatized for 7 days prior to the start of the study by daily handling and shuffling between cages. All mice were housed at three mice per cage in individually vented cages (Thoren, Hazleton, Pa.). At day 0, baseline fresh fecal pellets, and vaginal lavages with 100 μL of sterile double-distilled water were collected and immediately frozen at −80° C. for microbiome analysis. […] Water alone is not expected to influence the microbiome and acted as a negative control. […] The impact of oral vancomycin is therefore expected to be limited to the gastrointestinal tract such that microbiome changes elsewhere in the body (e.g. vagina) would be attributable to distal augmentation. At day 6, fresh fecal pellets and vaginal lavages with 100 μL of sterile double-distilled water were collected and immediately stored at −80° C. for microbiome analysis.
# (§2) Isolation and sequencing of microbial DNA from the stool and vaginal samples was performed by DNA Genotek (Ottawa, ON, Canada). The V3-V4 region of the 16S ribosomal subunit was amplified with custom PCR primers and sequenced on an Illumina MiSeq to a minimum acceptable read depth of 25,000 sequences per sample. […] These OTU's were then assigned a curated taxonomic label based on the seven level SILVA taxonomy.
# [2] = tested on: microbiome of the vagina; details: mouse, in vivo
# Excerpt: as §1, §2
# [3] = in vivo, po; cited from earlier work
# [4] = tested on: tumors; details: oral administration; Sivan et al., Vetizou et al.; cited from earlier work
# [5] = tested on: human peripheral blood mononuclear cells (PBMCs); test: Cytokine release by human PBMCs incubated with commensal bacteria alone or with E. faecalis (Luminex); type: cell-based; details: for overall anti-inflammatory cytokine profile for a Th-1-driven condition such as GVHD: alone and with EPV 8
# Description: An in vitro system was developed to efficiently test the inflammatory and immunomodulatory properties of different human commensal bacteria on human peripheral blood mononuclear cells (PBMCs). Experiments were carried out with 21 bacterial candidates to profile their anti-inflammatory properties against human PBMCs. The innate properties of bacteria alone on human PBMCs were tested as well as their ability to counteract the pro-inflammatory activity of Enterococcus feacalis.
# Human PBMCs were isolated from fresh blood by density-gradient centrifugation using Ficoll (1-4). […] The results are presented in FIGS. 2-5 for all time points. […] The 24 h results are shown as a composite in FIG. 6 and with statistical analysis on individual cytokines in FIGS. 7-10. The results represent the properties of each bacterial species against human PBMCs and their ability to counteract inflammatory stimulation with E. faecalis in vitro.
# [6] = tested on: healthy, adult volunteers; details: human, in vivo
# Description: D-xylose is a carbon source generally preferred by anaerobic bacteria. […] A parallel, double-blind, 5 cohort escalation food safety study was conducted to examine D-xylose in normal human volunteers. The study was a double-blind, single-center, parallel group study designed to evaluate the tolerability and potential microbiome changes induced by ingestion of D-xylose at 5 different amounts in healthy, adult volunteers enrolled at 1 study center in the United States (US).
# Subjects were screened for eligibility within 21 days prior to the first planned ingestion of study sweetener on Day 1 (Baseline). […]
# Subjects returned to the study center weekly on Days 8, 15, 22, and 28 for ingestion, tolerability, and compliance evaluations. Safety was evaluated on a continual basis through adverse events (AE) monitoring, clinical laboratory measurements, vital sign monitoring, physical examinations, electrocardiograms (ECGs), telephone follow-up, and electronic subject ingestion diaries. Stool was collected pre-ingestion and at pre-specified time points, and post-ingestion samples were evaluated for changes in the gut microbiome compared with Baseline for all subjects. […]
# Safety was evaluated on a continual basis through AE monitoring, clinical laboratory measurements, vital sign monitoring, physical examinations, ECGs, telephone follow-up, and electronic subject ingestion diaries. […]
# [7] = tested on: healthy, adult volunteers; test: Normal human volunteer study of D-xylose: CRP, serum cytokines, T-cell markers; type: in vivo
# Excerpt: Blood was collected at pre-specified pre- and post-ingestion time points to evaluate C-reactive protein (CRP), serum cytokines (tumor necrosis factor alpha [TNF-α], interleukin [IL]-2, IL-6, interferon gamma [IFN-γ], and IL-10), and T-cell markers CD3, CD4, CD8, CD25, and FOXP3. Plasma was also stored and may be tested for biomarkers and/or metabolic markers for up to 7 years.
# Summary statistics (n, mean, standard deviation, median, minimum, and maximum) were presented for serum concentrations of CRP, flow cytometry T-cell markers (CD3, CD4, CD8, CD25, and FOXP3), and cytokines (TNF-α, IL-2, IL-6, IFN-γ, and IL-10) as per their nominal time points.
# [8] = Normal human volunteer study of D-xylose: serum and urine pharmacokinetics; type: in vivo
# Excerpt: Blood and urine were collected at pre-specified pre- and post-ingestion time points to measure D-xylose levels and to characterize the systemic absorption profiles of D-xylose. Phoenix® WinNonLin®, Version 6.2.1, was used for PK analyses. Serum D-xylose concentrations were summarized by cohort using nominal sample times according to actual amount received using summary statistics (n, coefficient of variation [CV], mean, standard deviation [SD], median, minimum, and maximum). Evidence for the occurrence of steady-state was assessed graphically by comparing the time course of either trough or 2-hour post-ingestion serum concentrations of D-xylose as different levels of D-xylose. Accumulation was assessed by comparing the 2-hour post-first-ingestion serum levels with those observed at Week 2 (Day 15) and Week 4 (Day 28). […] Urine PK parameters for D-xylose levels included Ae(0-t) (cumulative amount of sweetener recovered in urine) and percent sweetener amount excreted over a 5-hour period.
# [9] = tested on: gut microbiome; test: Normal human volunteer study of D-xylose: changes in the gut microbiome (stool V3-V4 16S sequencing); type: in vivo; details: for gut microbiome community composition: over time on study; for alpha diversity of the gut microbiome: regardless of ingestion amount
# [10] = tested on: gut microbiome; details: mouse, in vivo
molecule,measurement,setting,value
CN[C@H](CC(C)C)C(=O)N[C@H]1C(=O)N[C@@H](CC(N)=O)C(=O)N[C@H]2C(=O)N[C@H]3C(=O)N[C@H](C(=O)N[C@H](C(=O)O)c4cc(O)cc(O)c4-c4cc3ccc4O)[C@H](O)c3ccc(c(Cl)c3)Oc3cc2cc(c3O[C@@H]2O[C@H](CO)[C@@H](O)[C@H](O)[C@H]2O[C@H]2C[C@](C)(N)[C@H](O)[C@H](C)O2)Oc2ccc(cc2Cl)[C@H]1O [vancomycin],impact on the microbiome of the gut (PCA at family level),[1],strong impact on the microbiome of the gut
same,median abundance of bacterial species in vaginal samples at day 6 that were not present at day 0,[2],approximately 0.00002%
same,day 0 to day 6 pattern in vaginal samples (PCA),[2]; po,showed an overall difference
same,absorption from the gut,[3],poorly absorbed from the gut
Bacteroides,responsiveness to checkpoint inhibitor therapy in cancer,[4],increases the responsiveness to checkpoint inhibitor therapy
B. luti [EPV3],intrinsic inflammatory activity (induction of pro-inflammatory cytokines) compared to EPV 8,[5],relatively low intrinsic inflammatory activity compared to EPV 8
same,overall anti-inflammatory cytokine profile for a Th-1-driven condition such as GVHD,[5],significantly desirable anti-inflammatory profile; also recorded: capable of inducing a desirable anti-inflammatory cytokine profile
same,"ability to reduce induction of pro-inflammatory cytokines by EPV 8 (IL-6, MCP-1, IL-12p70, IFNγ)",[5]; combination with EPV 8,able to reduce the induction of pro-inflammatory cytokines by EPV 8
B. wexlerae [EPV5],overall anti-inflammatory cytokine profile for a Th-1-driven condition such as GVHD,[5],suboptimal anti-inflammatory profile for GVHD; also recorded: induces a suboptimal profile for GVHD
Bifidobacterium,responsiveness to checkpoint inhibitor therapy in cancer,[4],increases the responsiveness to checkpoint inhibitor therapy
O=C[C@H](O)[C@@H](O)[C@H](O)CO [D-xylose],"SAEs, severe AEs, deaths",[6],"No SAEs, severe AEs, or subject deaths"
same,subjects who experienced at least 1 AE,[6]; 28 days,38.9%
same,serum interferon gamma over time,[7]; 2 g and 15 g cohorts,trend for reduced levels of serum interferon gamma over time
same,subjects with normal serum CRP at Baseline and at least 1 post-ingestion CRP value >2.9 mg/L,[7]; all cohorts,8.3%
same,total T-cells and T-cell subsets over time,[7]; any ingestion amount,No consistent or clinically meaningful changes over time
same,"serum cytokines (TNF-α, IL-2, IL-6, IFN-γ, IL-10) over time","[7]; most data points BLQ, any ingestion amount",did not indicate any consistent or clinically meaningful changes over time
same,ingested amount recovered in urine within 5 hours post-ingestion,"[8]; 1 g TID, Days 1, 15 and 28",approximately 40%
same,serum D-xylose concentrations vs ingestion amount,[8]; 1 to 15 g TID,increased linearly with increasing ingestion amounts
same,accumulation ratio,"[8]; Day 15, 15 mg TID cohort",approximately 1.9 fold
same,accumulation of serum D-xylose,"[8]; Day 15, 1 g to 12.5 g TID",Little to no accumulation
same,accumulation ratio,"[8]; Day 28, 15 g TID",1.68
same,Chao diversity index (community richness),[9]; over time,overall decrease in the Chao diversity index over time
same,gut microbiome community composition,[9],no significant changes in community composition
same,gut microbiome community composition,[9]; listed as xylose,exerts subtle changes in the gut microbiome
same,alpha diversity of the gut microbiome,[9]; over time,no apparent significant impact on the intra-sample alpha diversity
same,alpha diversity of the gut microbiome,"[9]; over time, listed as xylose",no major shifts in the microbiome alpha diversity
same,shifts in the gut microbiome,[10],did not cause major shifts in the gut microbiome but showed some differences at the family level
Lactobacillus,responsiveness to checkpoint inhibitor therapy in cancer,[4],not
